Data taken from patent publication US20230302014A1, “USES OF GLUCOCORTICOID RECEPTOR (GR) ANTAGONIST AND ANDROGEN RECEPTOR (AR) DEGRADER COMBINATIONS” (ORIC Pharmaceuticals, Inc., priority 2020, published 2023).

Legend:
Format in all cases: cell-based, Human
[1] = tested on: AR target genes KLK3, KLK4, NKX3.1, FKBP5; assay: Target gene assay (RT-qPCR, R1881-induced AR target genes); conditions: 100 pM R1881; for AR target gene FKBP5 induced by R1881 / AR target gene KLK3 induced by R1881 / AR target gene KLK4 induced by R1881 / AR target gene NKX3.1 induced by R1881: 24 hours post treatment
Description: (§1) 10,000 LNCaP and CWR22PC cells per well were plated in triplicate in poly-lysine coated 96-well plates (ThermoFisher#152039) in 200 µL of RPMI-1640 media supplemented with 10% charcoal-stripped serum. 24 hours later, cells were treated with 100 pM of R1881 and 8-point dilution for enzalutamide, ARD1 or ARD2 with concentrations ranging from 1 µM to 0.46 nM. After incubation at 37° C. for 24 hours, media was removed, and cells were washed once with PBS. 55 µL per well of iScript RT-qPCR sample preparation reagent (Bio-Rad #1708898) was added and incubated for 2 minutes before lysate was collected for mRNA analysis. RT-qPCR was set up in triplicate using 3 µL of lysate plus 7 µL of pre-mixed SensiFAST™ SYBR No-ROX One-Step Kit reagents (BIOLINE, Cat# BIO-98005) per reaction. The RT-qPCR reactions were run on a Bio-Rad CFX384 Real-Time PCR System and data was plotted with GraphPad Prism 8 software.
as §1, with “15,000” for “10,000”, “24 hours later, cells were treated with 100 pM of R1881 and 8-point dilution for enzalutamide, ARD1 or ARD2 with concentrations ranging from 1 µM to 0.46 nM.” left out, “75” for “55”

[2] = tested on: GR target genes GILZ, PER1, KLF9, SGK1; assay: RT-qPCR of GR target genes after time-dependent AR degrader treatment; conditions: LNCaP and CWR22PC cells; 100 nM degrader; 30 nM dexamethasone; 0, 6, 10, 13, 15 days
Description: Adherent cells or cell pellets harvested for mRNA analysis were first washed once with PBS and then resuspended in 600 µL of RLT lysis buffer (Qiagen Inc.) supplemented with 1% of betamercaptoethanol. RNA was extracted by QIAcube using the RNeasy Mini QIAcube kit (Qiagen#74116) according to manufacturer’s instructions. The extracted RNA samples were then quantified using a Nanodrop 8000 Spectrophotometer. RT-qPCR reactions were set up in triplicate using 3 µL of 3 ng/ µL of RNA in 7 µL of pre-mixed SensiFAST™ SYBR No-ROX One-Step Kit reagents (BIOLINE# BIO-98005). The RT-qPCR reactions were run on a Bio-Rad CFX384 Real-Time PCR System and data was plotted with GraphPad Prism 8 software.

PSA = PSA AlphaLISA assay of cell supernatant (PSA secretion); conditions: CWR22PC; CSS media; 21 days; 0.1 nM R1881 + 1 µM ARV-110, + 30 nM dexamethasone, + 0.5 µM compound 1
CWR22PC cells = assay: Cell growth (cell number) of prostate cancer cells under long-term treatment; conditions: CWR22PC; CSS media; 21 days; 0.1 nM R1881 + 1 µM ARV-110, + 30 nM dexamethasone, + 0.5 µM compound 1
Description: (§2) CWR22PC cells were seeded at a density of 2 × 10^5 cells/well in 6-well plates (Corning# 3516) in 2 mL of RPMI-1640 media supplemented with 10% charcoal-stripped serum (CSS) in duplicate. 24 hours later, cells were treated with 100 pM R1881, 30 nM dexamethasone, 0.5 µM compound 1, 1 µM of ARD1 or ARD2, or combinations thereof as indicated. Fresh media containing the indicated treatment was replaced every 5-7 days. Cell supernatant was collected on Day 12 and 19 and stored at -80° C. for PSA AlphaLISA assay. Cell images were taken on Day 12 and 19 using Leica DMi8 microscope (LEICA MICROSYSTEMS, INC. IL) with a 10X magnification. Cells were then trypsinized and cell numbers in each treatment group were counted three times, average counts were plotted with GraphPad Prism 8. Cell pellets were washed once with 1XPBS and then lysed in 600 µL RLT RNA lysis buffer and stored at -80° C. RNA was extracted for end of study (EOS) biomarker analysis for which the detailed procedures are described in the section RNA Extraction and RT-qPCR analysis.
The impact of ARD1 and ARD2 on the growth of prostate cancer cells was explored. CWR22PC cells were plated in charcoal-stripped serum (CSS) media and treated with vehicle or 0.1 nM R1881 (synthetic AR ligand) without or with 1 µM of ARD1 or ARD2. Media with treatments were replaced every 5-7 days and cells were maintained at 37° C. for 22 days. Supernatant of each group was harvested at day 22 to measure PSA secretion by PSA AlphaLISA assays.
as §2, with “24 hours later, cells were treated with 100 pM R1881, 30 nM dexamethasone, 0.5 µM compound 1, 1 µM of ARD1 or ARD2, or combinations thereof as indicated.” left out, “15” for “12”, “21” for “19”, “assay.” for “assay. Cell images were taken on Day 12 and 19 using Leica DMi8 microscope (LEICA MICROSYSTEMS, INC. IL) with a 10X magnification.”

## N#Cc1ccc(O[C@H]2CC[C@H](NC(=O)c3ccc(N4CCC(CN5CCN(c6cc7c(cc6F)C(=O)N(C6CCC(=O)NC6=O)C7=O)CC5)CC4)nn3)CC2)cc1Cl (stereo partly drawn) [ARV-110, N-[trans-4-(3-chloro-4-cyanophenoxy)cyclohexyl]-6-[4-[[4-[2-(2,6-dioxo-3-piperidinyl)-6-fluoro-2,3-dihydro-1,3-dioxo-1H-isoindol-5-yl]-1-piperazinyl]methyl]-1-piperidinyl]-3-pyridazinecarboxamide]
[1]; CWR22PC cells
  AR target gene FKBP5 induced by R1881: inhibit
  AR target gene KLK3 induced by R1881: inhibit
  AR target gene KLK4 induced by R1881: inhibit
  AR target gene NKX3.1 induced by R1881: inhibit
[1]; LNCaP and CWR22PC cells, 24 hours, 1 µM to 0.46 nM, potency compared with enzalutamide
  expression of AR target genes including KLK3, KLK4, NKX3.1, and FKBP5: in a dose-dependent manner with greater potency than AR antagonist enzalutamide
[1]; LNCaP cells
  AR target gene FKBP5 induced by R1881: inhibit
  AR target gene KLK3 induced by R1881: inhibit
  AR target gene KLK4 induced by R1881: inhibit
  AR target gene NKX3.1 induced by R1881: inhibit
[2]
  expression of GR target genes including GILZ, PER1, KLF9, and SGK1: most of the GR target genes are upregulated in a time dependent manner
PSA
  R1881-induced PSA secretion: blunts
CWR22PC cells
  R1881-induced cell growth: blunts
